# Columns and labels:
# Assay in all cases: viability relative to DMSO control (fraction); higher = less drug effect (more viable cells)
# Details in all cases: 48 h
# [1] = system: primary ALL patient cells (S048)
# Procedure, shortened: (§1)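 Primary mononuclear tumour cells (Ficoll-isolated from blood or bone marrow, or processed lymph node; fresh or cryopreserved) were plated at 4 × 10^4 cells per well in 384-well plates with pre-plated compounds at five concentrations, one well each. Medium was RPMI-1640 with penicillin/streptomycin, L-glutamine and human serum, at 37 °C and 5% CO2 for 48 h. Viability was read as CellTiter-Glo luminescence relative to the median of 16 inner DMSO wells.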
# [2] = system: primary ALL patient cells (S088)
# Procedure, shortened: as §1
# [3] = system: primary AML patient cells (S002)
# Procedure, shortened: as §1
# [4] = system: primary AML patient cells (S009)
# Procedure, shortened: as §1
# [5] = system: primary AML patient cells (S017)
# Procedure, shortened: as §1
# [6] = system: primary AML patient cells (S019)
# Procedure, shortened: as §1
# [7] = system: primary AML patient cells (S021)
# Procedure, shortened: as §1
# [8] = system: primary AML patient cells (S025)
# Procedure, shortened: as §1
# [9] = system: primary AML patient cells (S055)
# Procedure, shortened: as §1
# [10] = system: primary AML patient cells (S060)
# Procedure, shortened: as §1
# [11] = system: primary AML patient cells (S071)
# Procedure, shortened: as §1
# [12] = system: primary AML patient cells (S072)
# Procedure, shortened: as §1
# [13] = system: primary AML patient cells (S079)
# Procedure, shortened: as §1
# [14] = system: primary AML patient cells (S089)
# Procedure, shortened: as §1
# [15] = system: primary AML patient cells (S091)
# Procedure, shortened: as §1
# [16] = system: primary B-PLL patient cells (S016)
# Procedure, shortened: as §1
# [17] = system: primary DLBCL patient cells (S082)
# Procedure, shortened: as §1
# [18] = system: primary FL patient cells (S022)
# Procedure, shortened: as §1
# [19] = system: primary FL patient cells (S087)
# Procedure, shortened: as §1
# [20] = system: primary MCL patient cells (S053)
# Procedure, shortened: as §1
structure (smiles),measurement,setting,value
CO[C@H]1C[C@@H]2CC[C@@H](C)[C@@](O)(O2)C(=O)C(=O)N2CCCC[C@H]2C(=O)O[C@H]([C@H](C)C[C@@H]2CC[C@@H](OC(=O)C(C)(CO)CO)[C@H](OC)C2)CC(=O)[C@H](C)/C=C(\C)[C@@H](O)[C@@H](OC)C(=O)[C@H](C)C[C@H](C)/C=C/C=C/C=C/1C [Temsirolimus],viability,[1]; 0.032 µM,0.747
same,viability,[1]; 0.16 µM,0.706
same,viability,[1]; 0.8 µM,0.702
same,viability,[1]; 4 µM,0.748
same,viability,[1]; 20 µM,0.49
same,viability,[2]; 0.032 µM,0.737
same,viability,[2]; 0.16 µM,0.688
same,viability,[2]; 0.8 µM,0.693
same,viability,[2]; 4 µM,0.703
same,viability,[2]; 20 µM,0.576
same,viability,[3]; 0.032 µM,0.755
same,viability,[3]; 0.16 µM,0.706
same,viability,[3]; 0.8 µM,0.702
same,viability,[3]; 4 µM,0.62
same,viability,[3]; 20 µM,0.44
same,viability,[4]; 0.032 µM,0.92
same,viability,[4]; 0.16 µM,0.774
same,viability,[4]; 0.8 µM,0.846
same,viability,[4]; 4 µM,0.769
same,viability,[4]; 20 µM,0.533
same,viability,[5]; 0.032 µM,0.724
same,viability,[5]; 0.16 µM,0.765
same,viability,[5]; 0.8 µM,0.739
same,viability,[5]; 4 µM,0.727
same,viability,[5]; 20 µM,0.634
same,viability,[6]; 0.032 µM,0.909
same,viability,[6]; 0.16 µM,0.834
same,viability,[6]; 0.8 µM,0.915
same,viability,[6]; 4 µM,0.873
same,viability,[6]; 20 µM,0.739
same,viability,[7]; 0.032 µM,0.761
same,viability,[7]; 0.16 µM,0.846
same,viability,[7]; 0.8 µM,0.818
same,viability,[7]; 4 µM,0.737
same,viability,[7]; 20 µM,0.605
same,viability,[8]; 0.032 µM,0.914
same,viability,[8]; 0.16 µM,0.962
same,viability,[8]; 0.8 µM,0.883
same,viability,[8]; 4 µM,0.893
same,viability,[8]; 20 µM,0.754
same,viability,[9]; 0.032 µM,0.919
same,viability,[9]; 0.16 µM,0.959
same,viability,[9]; 0.8 µM,0.957
same,viability,[9]; 4 µM,0.955
same,viability,[9]; 20 µM,0.812
same,viability,[10]; 0.032 µM,1.05
same,viability,[10]; 0.16 µM,1.04
same,viability,[10]; 0.8 µM,1.04
same,viability,[10]; 4 µM,1.06
same,viability,[10]; 20 µM,1
same,viability,[11]; 0.032 µM,0.837
same,viability,[11]; 0.16 µM,0.761
same,viability,[11]; 0.8 µM,0.723
same,viability,[11]; 4 µM,0.646
same,viability,[11]; 20 µM,0.407
same,viability,[12]; 0.032 µM,0.733
same,viability,[12]; 0.16 µM,0.886
same,viability,[12]; 0.8 µM,0.704
same,viability,[12]; 4 µM,0.728
same,viability,[12]; 20 µM,0.604
same,viability,[13]; 0.032 µM,0.764
same,viability,[13]; 0.16 µM,0.771
same,viability,[13]; 0.8 µM,0.768
same,viability,[13]; 4 µM,0.755
same,viability,[13]; 20 µM,0.675
same,viability,[14]; 0.032 µM,0.752
same,viability,[14]; 0.16 µM,0.831
same,viability,[14]; 0.8 µM,0.673
same,viability,[14]; 4 µM,0.684
same,viability,[14]; 20 µM,0.719
same,viability,[15]; 0.032 µM,0.697
same,viability,[15]; 0.16 µM,0.686
same,viability,[15]; 0.8 µM,0.659
same,viability,[15]; 4 µM,0.663
same,viability,[15]; 20 µM,0.611
same,viability,[16]; 0.032 µM,0.618
same,viability,[16]; 0.16 µM,0.598
same,viability,[16]; 0.8 µM,0.653
same,viability,[16]; 4 µM,0.614
same,viability,[16]; 20 µM,0.561
same,viability,[17]; 0.032 µM,0.794
same,viability,[17]; 0.16 µM,0.759
same,viability,[17]; 0.8 µM,0.776
same,viability,[17]; 4 µM,0.804
same,viability,[17]; 20 µM,0.748
same,viability,[18]; 0.032 µM,0.962
same,viability,[18]; 0.16 µM,0.821
same,viability,[18]; 0.8 µM,0.966
same,viability,[18]; 4 µM,0.917
same,viability,[18]; 20 µM,0.569
same,viability,[19]; 0.032 µM,0.833
same,viability,[19]; 0.16 µM,0.813
same,viability,[19]; 0.8 µM,0.84
same,viability,[19]; 4 µM,0.82
same,viability,[19]; 20 µM,0.713
same,viability,[20]; 0.032 µM,0.884
same,viability,[20]; 0.16 µM,0.879
same,viability,[20]; 0.8 µM,0.927
same,viability,[20]; 4 µM,0.898
same,viability,[20]; 20 µM,0.755
CC(=O)Nc1cccc(-n2c(=O)n(C3CC3)c(=O)c3c(Nc4ccc(I)cc4F)n(C)c(=O)c(C)c32)c1 [Trametinib],viability,[1]; 0.0008 µM,0.818
same,viability,[1]; 0.004 µM,0.766
same,viability,[1]; 0.02 µM,0.674
same,viability,[1]; 0.1 µM,0.666
same,viability,[1]; 0.5 µM,0.592
same,viability,[2]; 0.0008 µM,0.62
same,viability,[2]; 0.004 µM,0.548
same,viability,[2]; 0.02 µM,0.545
same,viability,[2]; 0.1 µM,0.503
same,viability,[2]; 0.5 µM,0.504
same,viability,[3]; 0.0008 µM,0.398
same,viability,[3]; 0.004 µM,0.432
same,viability,[3]; 0.02 µM,0.364
same,viability,[3]; 0.1 µM,0.437
same,viability,[3]; 0.5 µM,0.402
same,viability,[4]; 0.0008 µM,1.09
same,viability,[4]; 0.004 µM,1.17
same,viability,[4]; 0.02 µM,1.24
same,viability,[4]; 0.1 µM,1.24
same,viability,[4]; 0.5 µM,1.04
same,viability,[5]; 0.0008 µM,1.02
same,viability,[5]; 0.004 µM,1.1
same,viability,[5]; 0.02 µM,0.888
same,viability,[5]; 0.1 µM,0.852
same,viability,[5]; 0.5 µM,0.719
same,viability,[6]; 0.0008 µM,0.948
same,viability,[6]; 0.004 µM,0.944
same,viability,[6]; 0.02 µM,0.878
same,viability,[6]; 0.1 µM,0.919
same,viability,[6]; 0.5 µM,0.912
same,viability,[7]; 0.0008 µM,0.864
same,viability,[7]; 0.004 µM,0.697
same,viability,[7]; 0.02 µM,0.672
same,viability,[7]; 0.1 µM,0.598
same,viability,[7]; 0.5 µM,0.605
same,viability,[8]; 0.0008 µM,0.74
same,viability,[8]; 0.004 µM,0.618
same,viability,[8]; 0.02 µM,0.644
same,viability,[8]; 0.1 µM,0.561
same,viability,[8]; 0.5 µM,0.554
same,viability,[9]; 0.0008 µM,0.797
same,viability,[9]; 0.004 µM,0.582
same,viability,[9]; 0.02 µM,0.585
same,viability,[9]; 0.1 µM,0.559
same,viability,[9]; 0.5 µM,0.558
same,viability,[10]; 0.0008 µM,1.04
same,viability,[10]; 0.004 µM,0.797
same,viability,[10]; 0.02 µM,0.681
same,viability,[10]; 0.1 µM,0.657
same,viability,[10]; 0.5 µM,0.642
same,viability,[11]; 0.0008 µM,0.8
same,viability,[11]; 0.004 µM,0.789
same,viability,[11]; 0.02 µM,0.757
same,viability,[11]; 0.1 µM,0.744
same,viability,[11]; 0.5 µM,0.708
same,viability,[12]; 0.0008 µM,0.907
same,viability,[12]; 0.004 µM,0.859
same,viability,[12]; 0.02 µM,0.751
same,viability,[12]; 0.1 µM,0.732
same,viability,[12]; 0.5 µM,0.69
same,viability,[13]; 0.0008 µM,0.703
same,viability,[13]; 0.004 µM,0.655
same,viability,[13]; 0.02 µM,0.556
same,viability,[13]; 0.1 µM,0.538
same,viability,[13]; 0.5 µM,0.504
same,viability,[14]; 0.0008 µM,0.635
same,viability,[14]; 0.004 µM,0.57
same,viability,[14]; 0.02 µM,0.558
same,viability,[14]; 0.1 µM,0.529
same,viability,[14]; 0.5 µM,0.539
same,viability,[15]; 0.0008 µM,0.438
same,viability,[15]; 0.004 µM,0.308
same,viability,[15]; 0.02 µM,0.288
same,viability,[15]; 0.1 µM,0.299
same,viability,[15]; 0.5 µM,0.272
same,viability,[16]; 0.0008 µM,0.939
same,viability,[16]; 0.004 µM,1.05
same,viability,[16]; 0.02 µM,0.986
same,viability,[16]; 0.1 µM,0.933
same,viability,[16]; 0.5 µM,0.885
same,viability,[17]; 0.0008 µM,0.835
same,viability,[17]; 0.004 µM,0.828
same,viability,[17]; 0.02 µM,0.727
same,viability,[17]; 0.1 µM,0.702
same,viability,[17]; 0.5 µM,0.651
same,viability,[18]; 0.0008 µM,0.845
same,viability,[18]; 0.004 µM,0.986
same,viability,[18]; 0.02 µM,0.851
same,viability,[18]; 0.1 µM,1.18
same,viability,[18]; 0.5 µM,0.824
same,viability,[19]; 0.0008 µM,0.951
same,viability,[19]; 0.004 µM,0.9
same,viability,[19]; 0.02 µM,0.92
same,viability,[19]; 0.1 µM,0.903
same,viability,[19]; 0.5 µM,0.941
same,viability,[20]; 0.0008 µM,0.885
same,viability,[20]; 0.004 µM,0.899
same,viability,[20]; 0.02 µM,0.818
same,viability,[20]; 0.1 µM,0.806
same,viability,[20]; 0.5 µM,0.733
